Like-named read-outs stand apart in the source and are kept apart here.
How the values were obtained:
[1] = test system: HIV-1 clinical isolate 1 (Q151Mc-containing); assay: Single-cycle drug susceptibility assay (MAGIC-5 cells), clinical isolate 1; format: cell-based; conditions: Human immunodeficiency virus 1; clinical isolate 1, MAGIC-5 cells
Experimental: (§1) HIV was isolated from fresh plasma immediately after collection of clinical samples from study participants at the outpatient clinic of the AIDS Clinical Center (ACC), International Medical Center of Japan. The Institutional Review Board approved this study (IMCJ-H13-80) and a written consent was obtained from all participants.
(§2) Susceptibilities to various RT inhibitors were determined using the MAGIC-5 cells which are HeLa cells stably transfected with a β-galactosidase gene under the control of an HIV long terminal repeat promoter, and with vectors that express the CD4 receptor and the CCR5 co-receptor under the control of the CMV promoter as described previously. Briefly, MAGIC-5 cells were infected with diluted virus stock (100 blue forming units) in the presence of increasing concentrations of RT inhibitors, cultured for 48 h, fixed, and stained with X-Gal (5-bromo-4-chloro-3-indolyl-β-D-galacto-pyranoside). The stained cells were counted under a light microscope.

[2] = test system: HIV-1 NL4-3 strain (WT); assay: microbe, parasite or virus in culture; format: cell-based; conditions: Human immunodeficiency virus 1, NL43; WT, MAGIC-5 cells, Table S1; read-out: EC50
Experimental: as §2

[3] = test system: HIV-1 WT; assay: Single-cycle drug susceptibility assay (MAGIC-5 cells), recombinant WT clone; format: cell-based; conditions: Human immunodeficiency virus 1, Table S2
Experimental: (§3) The NL4-3-based molecular clone was constructed by replacing the pol-coding region with the HIV-1 BH10 strain. […] Each molecular clone was transfected into COS-7 cells. Cells were grown for 48 h, and culture supernatants were harvested and stored at −80°C until use.
as §2

[4] = test system: HIV-1 K70R; assay: Single-cycle drug susceptibility assay (MAGIC-5 cells); format: cell-based; conditions: for EC50: Human immunodeficiency virus 1, MAGIC-5, K70R; for Fold increase in EC50 compared to HIV-1 WT: K70R vs WT
Experimental: as §3, §2

[5] = test system: HIV-1 Q151Mc; assay: as above; format: cell-based; conditions: Human immunodeficiency virus 1, MAGIC-5
Experimental: as §3, §2

[6] = test system: HIV-1 Q151Mc/K70E; assay: as above; format: cell-based; conditions: for EC50: Human immunodeficiency virus 1, MAGIC-5, Q151Mc/K70E; for Fold increase in EC50 compared to HIV-1 Q151Mc: Q151Mc/K70E vs Q151Mc
Experimental: as §3, §2

[7] = test system: HIV-1 K70Q; assay: as above; format: cell-based; conditions: for EC50: Human immunodeficiency virus 1, MAGIC-5, K70Q
Experimental: as §3, §2

[8] = test system: HIV-1 K70G; assay: as above; format: cell-based; conditions: for EC50: Human immunodeficiency virus 1, MAGIC-5, K70G; for Fold increase in EC50 compared to HIV-1 WT: K70G vs WT
Experimental: as §3, §2

[9] = test system: HIV-1 Q151Mc/K70T; assay: as above; format: cell-based; conditions: for EC50: Human immunodeficiency virus 1, MAGIC-5, Q151Mc/K70T; for Fold increase in EC50 compared to HIV-1 Q151Mc: Q151Mc/K70T vs Q151Mc
Experimental: as §3, §2

[10] = test system: HIV-1 Q151Mc/K70R; assay: as above; format: cell-based; conditions: for EC50: Human immunodeficiency virus 1, MAGIC-5, Q151Mc/K70R; for Fold increase in EC50 compared to HIV-1 Q151Mc: Q151Mc/K70R vs Q151Mc
Experimental: as §3, §2

[11] = test system: HIV-1 K70N; assay: as above; format: cell-based; conditions: for EC50: Human immunodeficiency virus 1, MAGIC-5, K70N; for Fold increase in EC50 compared to HIV-1 WT: K70N vs WT
Experimental: as §3, §2

[12] = test system: HIV-1 Q151Mc/K70Q; assay: as above; format: cell-based; conditions: for EC50: Human immunodeficiency virus 1, MAGIC-5, Q151Mc/K70Q
Experimental: as §3, §2

[13] = test system: HIV-1 Q151Mc/K70N; assay: as above; format: cell-based; conditions: for EC50: Human immunodeficiency virus 1, MAGIC-5, Q151Mc/K70N; for Fold increase in EC50 compared to HIV-1 Q151Mc: Q151Mc/K70N vs Q151Mc
Experimental: as §3, §2

[14] = test system: HIV-1 K70T; assay: as above; format: cell-based; conditions: for EC50: Human immunodeficiency virus 1, MAGIC-5, K70T; for Fold increase in EC50 compared to HIV-1 WT: K70T vs WT
Experimental: as §3, §2

[15] = test system: HIV-1 Q151Mc/K70G; assay: as above; format: cell-based; conditions: for EC50: Human immunodeficiency virus 1, MAGIC-5, Q151Mc/K70G; for Fold increase in EC50 compared to HIV-1 Q151Mc: Q151Mc/K70G vs Q151Mc
Experimental: as §3, §2

[16] = test system: HIV-1 K70E; assay: as above; format: cell-based; conditions: for EC50: Human immunodeficiency virus 1, MAGIC-5, K70E; for Fold increase in EC50 compared to HIV-1 WT: K70E vs WT
Experimental: as §3, §2

[17] = test system: HIV-1 Q151Mc; conditions: cited from earlier work; for Increase in resistance: Q151Mc
[18] = test system: HIV-1 clinical isolate 2 (Q151Mc + K70Q); assay: Single-cycle drug susceptibility assay (MAGIC-5 cells), clinical isolate 2; format: cell-based; conditions: Human immunodeficiency virus 1; clinical isolate 2, MAGIC-5 cells
Experimental: as §1, §2

[19] = biological target: T1, HIV-1 RT WT (Human immunodeficiency virus type 1 group M subtype B, UniProt P03366); assay: ATP-dependent rescue assay; format: biochemical; conditions: rescue of TFV-terminated primer, 30 minutes, read-out: apparent KD-ATP
T1 construct: made in house; host or cells: Escherichia coli BL21
Experimental: (§4) Template/primer (T31/P18) terminated with TFV (T/PTFV) was prepared as described in Michailidis et al. 20 nM of T/PTFV was incubated at 37°C with HIV-1 RT (60 nM), either at various concentrations of ATP (0–7 mM) for 30 minutes, or for various times (0–120 minutes) with 3.5 mM ATP, in RT buffer containing 50 mM Tris-HCl, pH 7.8, and 50 mM NaCl, and 10 mM MgCl2. […] Reactions were quenched with 100% formamide containing traces of bromophenol blue and analyzed as described above. The dissociation constants (Kd) of the various enzymes for ATP used in the rescue reactions were determined by fitting the rescue data at various ATP concentrations, using non-linear regression fitting to hyperbola.

[20] = biological target: T2, HIV-1 RT K70Q/Q151Mc (Human immunodeficiency virus type 1 group M subtype B, UniProt P03366, A661V/F676L/F715Y/K669Q/Q750M/V674I); assay: ATP-dependent rescue assay; format: biochemical
T2 construct: made in house; host or cells: Escherichia coli BL21
Experimental: as §4

[21] = biological target: T3, HIV-1 RT K70Q (Human immunodeficiency virus type 1 group M subtype B, UniProt P03366, K669Q); assay: ATP-dependent rescue assay; format: biochemical
T3 construct: made in house; host or cells: Escherichia coli BL21
Experimental: as §4

[22] = biological target: T4, HIV-1 RT Q151Mc (Human immunodeficiency virus type 1 group M subtype B, UniProt P03366, A661V/F676L/F715Y/Q750M/V674I); assay: ATP-dependent rescue assay; format: biochemical
T4 construct: made in house; host or cells: Escherichia coli BL21
Experimental: as §4

[23] = test system: HIV-1 RT K70Q/Q151Mc; assay: ATP-dependent rescue assay; format: biochemical; conditions: WT RT vs K70Q/Q151Mc RT, TFV-terminated primers, 3.5 mM ATP
Experimental: as §4

[24] = test system: HIV-1 RT Q151Mc; assay: ATP-dependent rescue assay; format: biochemical; conditions: WT RT vs Q151Mc RT, TFV-terminated primers, 3.5 mM ATP
Experimental: as §4

[25] = test system: HIV-1 RT K70Q; assay: ATP-dependent rescue assay; format: biochemical; conditions: WT RT vs K70Q RT, TFV-terminated primers, 3.5 mM ATP
Experimental: as §4

Compound | EC50 [1] | EC50 [2] | EC50 [3] | EC50 [4] | Fold increase in EC50 compared to HIV-1 WT [4] | EC50 [5] | EC50 [6] | Fold increase in EC50 compared to HIV-1 Q151Mc [6] | EC50 [7] | EC50 [8] | Fold increase in EC50 compared to HIV-1 WT [8] | EC50 [9] | Fold increase in EC50 compared to HIV-1 Q151Mc [9] | EC50 [10] | Fold increase in EC50 compared to HIV-1 Q151Mc [10] | EC50 [11] | Fold increase in EC50 compared to HIV-1 WT [11] | EC50 [12] | EC50 [13] | Fold increase in EC50 compared to HIV-1 Q151Mc [13] | also measured
Nc1nc(NC2CC2)c2ncn([C@H]3C=C[C@@H](CO)C3)c2n1 [ABC, abacavir] | 16.3 ± 2.52 µM | 1600 ± 460 nM | 1800 ± 220 nM | 2.8 ± 0.31 µM | (1.6) fold | 15 ± 2.1 µM | 34 ± 2.1 µM | (2.3) fold | 3.5 ± 0.6 µM | 6.6 ± 0.29 µM | (3.7) fold | 25 ± 2.3 µM | (1.7) fold | 14 ± 1 µM | (0.9) fold | 3.2 ± 0.3 µM | (1.8) fold | 24 ± 2.9 µM | 16 ± 2.1 µM | (1.1) fold | Fold increase in EC50 compared to HIV-1 WT ([7]; K70Q vs WT): (1.9) fold; Fold increase in EC50 compared to HIV-1 Q151Mc ([12]; Q151Mc/K70Q vs Q151Mc): (1.6) fold; EC50 [14]: 2.6 ± 0.21 µM; Fold increase in EC50 compared to HIV-1 WT [14]: (1.4) fold; EC50 [15]: 35 ± 2.7 µM; Fold increase in EC50 compared to HIV-1 Q151Mc [15]: (2.5) fold; EC50 [16]: 7.3 ± 0.12 µM; Fold increase in EC50 compared to HIV-1 WT [16]: (4.1) fold; Resistance ([17]; Q151M plus the four associated mutations ref 17, 18, 19, 20, 21): 5 fold; EC50 [18]: 24.7 ± 2.89 µM
Nc1ncnc2c1ncn2[C@@H]1O[C@H](COP(=O)(O)OP(=O)(O)OP(=O)(O)O)[C@@H](O)[C@H]1O [ATP, adenosine triphosphate] |  |  |  |  |  |  |  |  |  |  |  |  |  |  |  |  |  |  |  |  | Kd [19]: 400 µM; Kd [20]: 3.1 mM; Kd [21]: 700 µM; Kd [22]: 2.3 mM
C[C@H](Cn1cnc2c(N)ncnc21)OCP(=O)(O)O [TFV, tenofovir] |  |  |  |  |  |  |  |  |  |  |  |  |  |  |  |  |  |  |  |  | ATP-based rescue activity of WT RT, fold faster than mutant RT [23]: 3 fold; ATP-based rescue activity of WT RT, fold faster than mutant RT [24]: 2.5 fold; ATP-based rescue activity of WT RT, fold faster than mutant RT [25]: 1.5 fold; Increase in resistance ([17]; Miller et al. ref 22): 1.8 fold; Increase in resistance ([17]; Smith et al. ref 23): 3.6 fold
O=c1[nH]cnc2c1ncn2[C@H]1CC[C@@H](CO)O1 [ddI, didanosine] | 29.3 ± 3.06 µM | 2500 ± 350 nM | 2400 ± 260 nM | 3.3 ± 0.29 µM | (1.4) fold | 45 ± 1 µM | 30 ± 1.7 µM | (0.7) fold | 12 ± 1.7 µM | 16 ± 1.5 µM | (6.7) fold | 13 ± 1.5 µM | (0.3) fold | 53 ± 3.1 µM | (1.2) fold | 3.7 ± 0.32 µM | (1.5) fold | 108 ± 2.5 µM | 109 ± 4.4 µM | (2.4) fold | EC50 [14]: 8.9 ± 0.31 µM; Fold increase in EC50 compared to HIV-1 WT [14]: (3.7) fold; EC50 [15]: 59 ± 5 µM; Fold increase in EC50 compared to HIV-1 Q151Mc [15]: (1.3) fold; EC50 [16]: 13 ± 3.5 µM; Fold increase in EC50 compared to HIV-1 WT [16]: (5.4) fold; EC50 [18]: > 100 µM

— paper PMC3020970, “K70Q Adds High-Level Tenofovir Resistance to “Q151M Complex” HIV Reverse Transcriptase through the Enhanced Discrimination Mechanism” (PLoS ONE, 2011)
